Assay results as given in US10487068B2, “Pyridazine derivatives as RORc modulators” (Genentech, Inc., priority 2015, dated 2019).
pIC50: −log10 of the molar value.

Biological target: T1, RORc ligand binding domain (Homo sapiens, UniProt P51449)
T1 sequence (P51449 269-508 limits assumed): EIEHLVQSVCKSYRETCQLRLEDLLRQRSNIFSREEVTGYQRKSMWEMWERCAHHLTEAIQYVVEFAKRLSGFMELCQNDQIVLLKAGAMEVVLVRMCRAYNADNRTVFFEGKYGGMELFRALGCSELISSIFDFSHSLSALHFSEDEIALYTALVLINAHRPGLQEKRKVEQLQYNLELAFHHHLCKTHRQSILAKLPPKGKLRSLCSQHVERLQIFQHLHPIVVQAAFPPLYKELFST
Assay: In Vitro RORc Ligand Binding Assay
Conditions: RORc IC50, radioligand 25-[3H]hydroxycholesterol 6 nM; 0.6 ug/mL RORc receptor; 3 h at 25° C.

Row | SMILES | pIC50
1 | CC1(C)[C@H]2CC[C@]1(c1ccnc(-n3cnnc3)n1)c1nnc(-c3c(F)cccc3F)cc12 [Example 151] | 7.87
2 | CC1(C)[C@H]2CC[C@]1(c1ccnc(N3C[C@H](O)[C@@H](O)C3)n1)c1nnc(-c3c(F)cccc3F)cc12 [Example 152] | 6.76
3 | CC1(C)[C@H]2CC[C@]1(c1ccnc(NC[C@H](O)CO)n1)c1nnc(-c3c(F)cccc3F)cc12 [Example 153] | 7.80
4 | CC(C)S(=O)(=O)Nc1cccc([C@@]23CC[C@@H](c4cc(-c5c(F)cccc5F)nnc42)C3(C)C)n1 [Example 156, N-(6-((5R,8S)-3-(2,6-difluorophenyl)-9,9-dimethyl-5,6,7,8-tetrahydro-5,8-methanocinnolin-8-yl)pyridin-2-yl)propane-2-sulfonamide] | 7.51
5 | CC1(C)[C@H]2CC[C@]1(c1cccc(N3CCNC3=O)n1)c1nnc(-c3c(F)cccc3F)cc12 [Example 157, 1-(6-((5R,8S)-3-(2,6-difluorophenyl)-9,9-dimethyl-5,6,7,8-tetrahydro-5,8-methanocinnolin-8-yl)pyridin-2-yl)imidazolidin-2-one] | 8.29
6 | CC1(C)[C@H]2CC[C@]1(c1cccc(N3CCN(CCO)C3=O)n1)c1nnc(-c3c(F)cccc3F)cc12 [Example 158, 1-(6-((5R,8S)-3-(2,6-difluorophenyl)-9,9-dimethyl-5,6,7,8-tetrahydro-5,8-methanocinnolin-8-yl)pyridin-2-yl)-3-(2-hydroxyethyl)imidazolidin-2-one] | 7.58
7 | COC(=O)c1nccc([C@@]23CC[C@@H](c4cc(-c5c(F)cccc5Cl)nnc42)C3(C)C)n1 [Example 160] | 7.88
8 | CC1(C)[C@H]2CC[C@]1(c1ccnc(C(=O)NCCO)n1)c1nnc(-c3c(F)cccc3Cl)cc12 [Example 161] | 7.36
9 | CC1(C)[C@H]2CC[C@]1(c1cccc(S(=O)(=O)NCCO)n1)c1nnc(-c3c(F)cccc3F)cc12 [Example 162, 6-((5R,8S)-3-(2,6-difluorophenyl)-9,9-dimethyl-5,6,7,8-tetrahydro-5,8-methanocinnolin-8-yl)-N-(2-hydroxyethyl)pyridine-2-sulfonamide] | 7.64
10 | CC1(C)[C@H]2CC[C@]1(c1ccnc(NCc3nnc[nH]3)n1)c1nnc(-c3c(F)cccc3F)cc12 [Example 163] | 7.72
11 | CC1(C)[C@H]2CC[C@]1(c1cccc(NS(=O)(=O)C3COC3)n1)c1nnc(-c3c(F)cccc3F)cc12 [Example 164, N-(6-((5R,8S)-3-(2,6-difluorophenyl)-9,9-dimethyl-5,6,7,8-tetrahydro-5,8-methanocinnolin-8-yl)pyridin-2-yl)oxetane-3-sulfonamide] | 7.49
12 | CC1(C)[C@H]2CC[C@]1(c1cc(C#N)ncc1Br)c1nnc(-c3c(F)cccc3F)cc12 [Example 165, 5-bromo-4-((5R,8S)-3-(2,6-difluorophenyl)-9,9-dimethyl-5,6,7,8-tetrahydro-5,8-methanocinnolin-8-yl)picolinonitrile] | 7.60
13 | CC1(C)[C@H]2CC[C@]1(c1nc(C#N)ccc1Br)c1nnc(-c3c(F)cccc3F)cc12 [Example 166, 5-bromo-6-((5R,8S)-3-(2,6-difluorophenyl)-9,9-dimethyl-5,6,7,8-tetrahydro-5,8-methanocinnolin-8-yl)picolinonitrile] | 8.41
14 | Cc1nc(C#N)c(C#N)nc1[C@@]12CC[C@@H](c3cc(-c4c(F)cccc4F)nnc31)C2(C)C [Example 167, 5-((5R,8S)-3-(2,6-difluorophenyl)-9,9-dimethyl-5,6,7,8-tetrahydro-5,8-methanocinnolin-8-yl)-6-methylpyrazine-2,3-dicarbonitrile] | 6.26
15 | Cc1nnc(-c2ccnc([C@@]34CC[C@@H](c5cc(-c6c(F)cccc6F)nnc53)C4(C)C)n2)[nH]1 [Example 171, (5R,8R)-3-(2,6-difluorophenyl)-9,9-dimethyl-8-(4-(5-methyl-4H-1,2,4-triazol-3-yl)pyrimidin-2-yl)-5,6,7,8-tetrahydro-5,8-methanocinnoline] | 7.44
16 | CC1(C)[C@H]2CC[C@]1(c1cncc(-c3c[nH]c(=O)[nH]3)n1)c1nnc(-c3c(F)cccc3F)cc12 [Example 174, 4-(6-((5R,8S)-3-(2,6-difluorophenyl)-9,9-dimethyl-5,6,7,8-tetrahydro-5,8-methanocinnolin-8-yl)pyrazin-2-yl)-1H-imidazol-2(3H)-one] | 8.07
17 | Cc1ncc(-c2ccnc([C@@]34CC[C@@H](c5cc(-c6c(F)cccc6F)nnc53)C4(C)C)c2)o1 [Example 175] | 7.87
18 | Cc1nnc(-c2nccc([C@@]34CC[C@@H](c5cc(-c6c(F)cccc6F)nnc53)C4(C)C)n2)[nH]1 [Example 178] | 7.56

Other lines, results leading:

Row | pIC50 | SMILES
19 | 7.38 | CC1(C)[C@H]2CC[C@]1(c1ccnc(NC[C@@H](O)CO)n1)c1nnc(-c3c(F)cccc3F)cc12 [Example 154]
20 | 7.18 | CC1(C)[C@H]2CC[C@]1(c1ccnc(NCc3n[nH]c(=O)[nH]3)n1)c1nnc(-c3c(F)cccc3F)cc12 [Example 155]
21 | 6.26 | CC1(C)[C@H]2CC[C@]1(c1cnc(C#N)c(C#N)n1)c1nnc(-c3c(F)cccc3F)cc12 [Example 159, 5-((5R,8S)-3-(2,6-difluorophenyl)-9,9-dimethyl-5,6,7,8-tetrahydro-5,8-methanocinnolin-8-yl)pyrazine-2,3-dicarbonitrile]
22 | 7.70 | CC1(C)[C@H]2CC[C@]1(c1nc(C(F)(F)F)ncc1Br)c1nnc(-c3c(F)cccc3F)cc12 [Example 168]
23 | 8.00 | COC(=O)c1cnc(C)c([C@@]23CC[C@@H](c4cc(-c5c(F)cccc5F)nnc42)C3(C)C)n1 [Example 169, methyl 6-((5R,8S)-3-(2,6-difluorophenyl)-9,9-dimethyl-5,6,7,8-tetrahydro-5,8-methanocinnolin-8-yl)-5-methylpyrazine-2-carboxylate]
24 | 6.92 | Cc1ncc(C(=O)NCCO)nc1[C@@]12CC[C@@H](c3cc(-c4c(F)cccc4F)nnc31)C2(C)C [Example 170, 6-((5R,8S)-3-(2,6-difluorophenyl)-9,9-dimethyl-5,6,7,8-tetrahydro-5,8-methanocinnolin-8-yl)-N-(2-hydroxyethyl)-5-methylpyrazine-2-carboxamide]
25 | 6.80 | CC1(C)[C@H]2CC[C@]1(c1ccc(C#N)nc1)c1nnc(-c3c(F)cccc3Cl)cc12 [Example 172, 5-((5R,8S)-3-(2-chloro-6-fluorophenyl)-9,9-dimethyl-5,6,7,8-tetrahydro-5,8-methanocinnolin-8-yl)picolinonitrile]
26 | 8.35 | CC1(C)[C@H]2CC[C@]1(c1cccc(C#N)n1)c1nnc(-c3c(F)cccc3Cl)cc12 [Example 173, 6-((5R,8S)-3-(2-chloro-6-fluorophenyl)-9,9-dimethyl-5,6,7,8-tetrahydro-5,8-methanocinnolin-8-yl)picolinonitrile]
27 | 7.89 | COC(=O)c1nc(C)cc([C@@]23CC[C@@H](c4cc(-c5c(F)cccc5F)nnc42)C3(C)C)n1 [Example 176]
28 | 7.61 | CC1(C)[C@H]2CC[C@]1(c1cc(N)ncc1Cl)c1nnc(-c3c(F)cccc3F)cc12 [Example 177, 5-chloro-4-((5R,8S)-3-(2,6-difluorophenyl)-9,9-dimethyl-5,6,7,8-tetrahydro-5,8-methanocinnolin-8-yl)pyridin-2-amine]
